Assay [1] addresses T1, Thymidylate synthase (Homo sapiens, UniProt P04818). In words: Ability to inhibit thymidylate synthase derived from human leukemia K562 cells. It is filed as cell-based.
Assay [2] has as its target T1, Thymidylate synthase. In words: Inhibitory activity against human thymidylate synthase derived either from HeLa or KB cells. It is filed as cell-based.
Assay [3] deals with T2, Thymidylate synthase (Lactobacillus casei, UniProt P00469).
T2 sequence (P00469 whole entry): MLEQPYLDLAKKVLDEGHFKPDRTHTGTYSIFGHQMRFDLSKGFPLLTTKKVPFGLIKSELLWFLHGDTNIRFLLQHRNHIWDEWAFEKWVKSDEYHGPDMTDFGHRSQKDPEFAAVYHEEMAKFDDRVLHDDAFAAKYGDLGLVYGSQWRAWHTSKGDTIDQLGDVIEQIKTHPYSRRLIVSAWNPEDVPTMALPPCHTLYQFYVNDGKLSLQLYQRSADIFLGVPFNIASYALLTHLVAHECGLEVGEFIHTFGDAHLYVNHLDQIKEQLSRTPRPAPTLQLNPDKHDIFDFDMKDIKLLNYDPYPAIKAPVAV
Description: Ability to inhibit thymidylate synthase derived from Lactobacillus casei. Set-up: species or system Lacticaseibacillus casei.

Assay [4] addresses T1, Thymidylate synthase. Description: Inhibitory constant of thymidylate synthase was determined in human AML cells. Format: cell-based.

T1 sequence (P04818 whole entry): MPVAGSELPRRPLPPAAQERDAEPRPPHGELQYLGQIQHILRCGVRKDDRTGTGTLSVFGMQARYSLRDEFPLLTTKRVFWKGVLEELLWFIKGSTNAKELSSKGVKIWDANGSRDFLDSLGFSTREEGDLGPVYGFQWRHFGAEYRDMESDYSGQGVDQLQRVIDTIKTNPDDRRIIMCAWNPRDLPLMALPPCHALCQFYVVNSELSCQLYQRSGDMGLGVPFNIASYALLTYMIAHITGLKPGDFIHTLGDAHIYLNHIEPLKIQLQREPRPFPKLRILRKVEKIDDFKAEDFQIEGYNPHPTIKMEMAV

The IC50 is the concentration needed to halve the response being measured. `CN(Cc1ccc2nc(N)[nH]c(=O)c2n1)c1ccc(C(=O)N[C@@H](CCC(=O)O)C(=O)O)cc1` had a half-maximal inhibitory concentration (IC50) in assay [1] of 2500 nM.
Molecule `Nc1nc(O)c2nc(CNc3ccc(C(=O)N[C@@H](CCC(=O)O)C(=O)O)cc3)ccc2n1` returned an IC50 in assay [1] of 55000 nM.
In assay [1], `C#CCN(Cc1ccc2nc(N)[nH]c(=O)c2n1)c1ccc(C(=O)N[C@@H](CCC(=O)O)C(=O)O)cc1` registered an IC50 of 2400 nM.
`C#CN(Cc1cnc2nc(N)nc(N)c2n1)c1ccc(C(=O)NC(CCC(=O)O)C(=O)O)cc1` (stereo unspecified): half-maximal inhibition in assay [2] (IC50) required 20 nM.
For `CN(Cc1ccc2nc(N)[nH]c(=O)c2c1)c1ccc(C(=O)N[C@@H](CCC(=O)O)C(=O)O)cc1`, the midpoint of inhibition in assay [1], the IC50, lay at 290 nM.
Same read-out and setting: with `C#CCN(Cc1ccc2nc(N)nc(N)c2n1)c1ccc(C(=O)NC(CCC(=O)O)C(=O)O)cc1` (stereo unspecified) the figure was 1260 nM.
For the molecule `C#CCN(Cc1cnc2nc(N)[nH]c(=O)c2n1)c1ccc(C(=O)N[C@@H](CCC(=O)O)C(=O)O)cc1`, the IC50 turned out to be 3900 nM in assay [3] and 5500 nM in assay [1].
One may read the Ki as a measure of affinity in units of concentration, obtained from inhibition or displacement. A lower Ki goes with higher affinity. `Nc1nc2ncc(CNc3ccc(C(=O)N[C@@H](CCC(=O)O)C(=O)O)cc3)nc2c(=O)[nH]1` [FOLIC ACID]: the Ki in assay [4] amounted to 40000 nM. The molecule also yielded an IC50 in assay [1] of 290000 nM.
In turn, `CN(Cc1cnc2nc(N)[nH]c(=O)c2n1)c1ccc(C(=O)N[C@@H](CCC(=O)O)C(=O)O)cc1` [METHOPTERINE] gave a Ki in assay [4] of 1000 nM.

Source of the values: ChEMBL document CHEMBL1123717, “Folate analogues as inhibitors of thymidylate synthase” (J Med Chem, 1987).
